Measured values reported in patent US10821177B2, “Induction of differential stress resistance and uses thereof” (University of Southern California, priority 2007, dated 2020).
Where two headings read alike, the source gives them in different places. Marks after values point to notes of the source that are not given here.

Columns and labels:
A/J mice [1] = assay: Resistance to high-dose etoposide (80 mg/kg) in A/J mice after STS and/or octreotide
Experimental: (§1) N J mice were pretreated with 1 mg/kg/day doses of human octreotide (OCT, ProSpec-Tany TechnoGene, Rehovot, Israel) for 4 days given slowly through the tail vein in a volume of 100 pl and then injected intravenously with murine neuroblastoma NXS2 cell line (200,000/mouse), as previously described. After tumor cell inoculum, some groups of animals were starved for 48 hours and then i.v. treated with 80 mg/kg of Etoposide Teva (Teva Pharma B.V., Mijdrecht, Holland), administered as a single dose. Additional daily doses of OCT were administered for 4 days after chemotherapy. Control groups of mice without diet starvation and OCT treatment were also investigated.
(§2) To determine toxicity and efficacy, mice were monitored routinely for weight loss and general behavior. […] Survival time was used as the main criterion for determining the efficacy of each treatment.
as §1, with “Six-to-seven-week-old female A/J mice, weighing 15-18 g were purchased from Harlan Laboratories (Harlan Italy, S. Pietro al Natisone, Italy) and housed in sterile enclosures under specific virus and antigen-free conditions. All procedures involving mice and their care were reviewed and approved by licensing and ethical committee of the National cancer Research Institute, Genoa, Italy, and by the Italian Ministry of Health. A/J” for “N J”, “μl” for “pl”, “injection,” for “inoculum,”

LID mice [2] = assay: High-dose etoposide in LID mice; assay type: in vivo, mouse; conditions: 100 mg/kg etoposide i.v.; difference in survival not significant
Experimental: FIG. 21. Resistance to high-dose chemotherapy in LID mice. All mice received an i.v. injection of 100 mg/kg etoposide and were single caged throughout the experiment. The toxicity, evaluated by (A) percent survival and (B) daily weight measurements, are shown. p-value was calculated by log rank test (p=0.06, n=10).

athymic (Nude-nu) mice = assay: Resistance to high-dose etoposide (100 mg/kg) in athymic (Nude-nu) mice; assay type: in vivo, mouse; conditions: 100 mg/kg etoposide
Experimental: In other experiments, four-week old female athymic (Nude-nu) mice (Harlan), weighing 20-22 gr were used to evaluate stress resistance after a 48-hour starvation. These animals were i.v.-injected with 100 mg/Kg etoposide and then monitored routinely for weight loss and general behavior.

CD1 mice = assay: Resistance to high-dose etoposide (110 mg/kg) in CD1 mice after 60-hour starvation; assay type: in vivo, mouse; conditions: 110 mg/Kg etoposide i.v., with or without 60-hour STS
Experimental: In some experiments, four-week-old female CD1 mice (Harlan), weighing 18-20 g were used to evaluate stress resistance after 60 hours of starvation. These animals, i.v. injected with 110 mg/kg etoposide, were monitored routinely for weight loss and general behavior. Survival time was used as the main criterion for determining the differential stress resistance after short-term starvation.

[3] = humans; cited from earlier work
NXS2 neuroblastoma cells [4] = conditions: for No toxicity deaths: deaths / mice
Excerpt: (§3) The murine NX3IT28 cell line was generated by hybridization of the GD2-negative C1300 murine neuroblastoma cell line (A/J background) with murine dorsal root ganglional cells from C57BL16J mice, as previously described. The NXS2 sublime was then created by the selection of NX3IT28 cells with high GD2 expression.
Six-to-seven-week-old female NJ mice, weighing 15-18 g were purchased from Harlan Laboratories (Harlan Italy, S. Pietro al Natisone, Italy) and housed in sterile enclosures under specific virus and antigen-free conditions. All procedures involving mice and their care were reviewed and approved by licensing and ethical committee of the National Cancer Research Institute, Genoa, Italy, and by the Italian Ministry of Health.
as §1, §2
The statistical significance of differential survival between experimental groups of animals was determined by Kaplan-Meier curves and log-rank […] test by the use of StatDirect statistical software (Camcode, Ashwell, UK).
as §3, with “C57BL/6J” for “C57BL16J”, “subline” for “sublime”
as §1, with “Six-to-seven-week-old female A/J mice, weighing 15-18 g were purchased from Harlan Laboratories (Harlan Italy, S. Pietro al Natisone, Italy) and housed in sterile enclosures under specific virus and antigen-free conditions. All procedures involving mice and their care were reviewed and approved by licensing and ethical committee of the National cancer Research Institute, Genoa, Italy, and by the Italian Ministry of Health. A/J” for “N J”, “μl” for “pl”, “injection,” for “inoculum,”
The statistical significance of differential survival between experimental groups of animals was determined by Kaplan-Meier curves and log-rank (Peto) test by the use of StatDirect statistical software (CamCode, Ashwell, UK). In some experiments, four-week-old female CD1 mice (Harlan), weighing 18-20 g were used to evaluate stress resistance after 60-hour diet starvation. These animals, i.v. injected with 110 mg/kg etoposide, were monitored routinely for weight loss and general behavior. Survival time was used as the main criterion for determining the differential stress resistance after short-term starvation.

NXS2 neuroblastoma cells [5] = assay: Effect of octreotide on etoposide cytotoxicity in NXS2 cells, trypan blue; assay type: cell-based, mouse; conditions: 10 or 50 micromolar octreotide, etoposide 1-3 μM, 72 hours
Experimental: FIG. 8. Survival of neuroblastoma (NXS2)-bearing mice. All mice were inoculated i.v. with 200,000 NXS2 cells/mouse on day 4. The different groups were treated as follows: A) Gr. 1: Control (16 mice)=i.v. inoculation with NSX2 tumor cells on day 4. Gr. 2: Oct (8 mice)=pre-treatment with 1 mg/kg/day octreotide for 4 days before and after tumor injection on day 4. Gr. 3: Oct/STS/Oct (8 mice)=pre-treatment with 1 mg/kg/day Oct before tumor cell injection on day 4+48-hour STS on days 4-6+post-treatment with 1 mg/kg/day Oct on days 8-11. Gr. […] Viability was determined by counting the cells with a contrast phase microscope. The proportion of dead (or living) cells was calculated by dividing the number of dead (or living) cells by the total number of cells per field. […]
NXS2 neuroblastoma cells treated with different concentrations of etoposide (1-3 μM) in presence or absence of octreotide (10 and 50 μM) for 72 hours were harvested by scraping, washed with complete medium, and incubated with trypan blue (0.04%; Sigma; St. Louis, Mo.) for 1 minute at 37° C. The cells were then placed in a Burker chamber (Tecnovetro, Monza Milan, Italy) and counted by viewing with a contrast phase microscope (Olympus Optical Co LTD, Tokyo, Japan). […] The proportion of dead (or living) cells was calculated by dividing the number of dead (or living) cells by the total number of cells per field.

mice = assay: Octreotide protection of mice against paraquat; assay type: in vivo, mouse; conditions: octreotide treatment
LID mice [6] = assay: Multiple treatments with doxorubicin in LID mice; assay type: in vivo, mouse; conditions: doxorubicin 20 mg/kg then 28 mg/kg 22 days later
Experimental: FIG. 22. Resistance to multiple treatments with doxorubicin. Doxorubicin was intravenously administered at 20 mg/kg on Day 0 and 28 mg/kg on Day 22 (n=5). The toxicity, evaluated by (A) percent survival and (B) daily weight measurements, are shown. p-value was calculated by log rank test (p<0.05).

A/J mice [7] = assay: High-dose doxorubicin toxicity in A/J mice with or without 48-hour STS; assay type: in vivo, mouse
Experimental: FIG. 20. A/J mice, weighing 18-20 g, were starved for 48 hours (STS), and followed by a single intravenous injection of high dose doxorubicin (16 mg/kg). The toxicity, evaluated by (A) percent survival and (B) daily weight measurements, are shown.

[8] = Table 1, mice with metastases / mice
[9] = Table 1, mice with metastases / mice, 200,000 NXS2 cells i.v.
[10] = Table 2, all mice followed until death, necropsy
[11] = Table 2, early etoposide toxicity deaths not considered
[12] = Table 2, followed until death, necropsy

| SMILES | Survival Range (NXS2 neuroblastoma cells [4]; Table 1) [days] | Hemorrhagic ascites (NXS2 neuroblastoma cells [4]; Table 1, affected mice / mice) | Adrenal glaud (metastases) (NXS2 neuroblastoma cells [4]; [8]) | Kidneys (metastases) (NXS2 neuroblastoma cells [4]; [8]) | Ovaries (metastases) (NXS2 neuroblastoma cells [4]; [8]) | Liver (metastases) (NXS2 neuroblastoma cells [4]; [9]) | Survival Range (NXS2 neuroblastoma cells [4]; Table 2) [days] | Liver (metastases) (NXS2 neuroblastoma cells [4]; [10]) | No toxicity deaths (NXS2 neuroblastoma cells [4]; Table 2) | Median survival (NXS2 neuroblastoma cells [4]; [11]) [days] | Adrenal gland (metastases) (NXS2 neuroblastoma cells [4]; [12]) | Hemorrhagic ascites (NXS2 neuroblastoma cells [4]; [12]) | Kidneys (metastases) (NXS2 neuroblastoma cells [4]; [12]) | Ovaries (metastases) (NXS2 neuroblastoma cells [4]; [12]) | other results |
| --- | --- | --- | --- | --- | --- | --- | --- | --- | --- | --- | --- | --- | --- | --- | --- |
| COc1cc([C@@H]2c3cc4c(cc3[C@@H](O[C@@H]3O[C@@H]5CO[C@@H](C)O[C@H]5[C@H](O)[C@H]3O)[C@H]3COC(=O)[C@H]23)OCO4)cc(OC)c1O [Eto, etoposide] | 87 to 90 | 1/3* | 0/3* | 1/3* | 1/3* | 1/3* | 87 to 140 | 3/3 | 3/6 | 130 | 0/3 | 3/3 | 3/3 | 0/3 | mice killed by etoposide (A/J mice [1]; 80 mg/Kg etoposide i.v., A/J mice): 43%; weight lost in the four days after etoposide treatment (A/J mice [1]; 80 mg/Kg etoposide, control mice): approximately 20%; resistance of LID mice compared to controls (LID mice [2]): less resistant; mice killed by etoposide (athymic (Nude-nu) mice; nude mice): 56%; weight change after etoposide (athymic (Nude-nu) mice; nude mice): lost weight; mice killed by etoposide (CD1 mice): all; excreted within 48 hours [3]: up to 90%; day until which mice did not develop tumors (NXS2 neuroblastoma cells [4]; NXS2-injected mice without STS): 80 days; Median survival (days) (NXS2 neuroblastoma cells [4]; Table 1): 90* days |
| C[C@@H](O)[C@@H]1NC(=O)[C@H](CCCCN)NC(=O)[C@@H](Cc2c[nH]c3ccccc23)NC(=O)[C@H](Cc2ccccc2)NC(=O)[C@@H](NC(=O)[C@H](N)Cc2ccccc2)CSSC[C@@H](C(=O)N[C@H](CO)[C@@H](C)O)NC1=O [OCT, octreotide] | 31 to 37 | 8/8 | 2/8 | 8/8 | 8/8 | 8/8 | 31 to 37 | 8/8 | 0/8 | 33 | 2/8 | 8/8 | 8/8 | 8/8 | protection against etoposide toxicity (A/J mice [1]; octreotide alone, mice): not sufficient to protect; mice that died (athymic (Nude-nu) mice; octreotide co-treatment and/or 48-hour starvation): all; sensitization of NXS2 cells to etoposide treatment (NXS2 neuroblastoma cells [5]): did not sensitize; Median survival (NXS2 neuroblastoma cells [4]; Table 1): 33 days; protection against NXS2-dependent death (NXS2 neuroblastoma cells [4]; octreotide alone, absence of short-term starvation): did not protect; protection of mice against the superoxide generator paraquat (mice): sufficient to protect |
| COc1cccc2c1C(=O)c1c(O)c3c(c(O)c1C2=O)C[C@@](O)(C(=O)CO)C[C@@H]3O[C@H]1C[C@H](N)[C@H](O)[C@H](C)O1 [doxorubicin] | – | – | – | – | – | – | – | – | – | – | – | – | – | – | survival (LID mice [6]; LID mice): All LID mice survived; mice that died (LID mice [6]; control mice): 75%; survival (A/J mice [7]; 16 mg/Kg doxorubicin i.v. after 48-hour STS (n=5)): protected all mice; lethality (A/J mice [7]; 16 mg/Kg doxorubicin i.v., mice not pre-starved): killed all the mice |
